According to patent US20260265538A1, “Aqueous Industrial Product Stabilized Against Microbial Contamination” (Thor GmbH, priority 2023, published 2026):

Tested on: Bacteria mixture 2 (alkaliphilic bacteria of the Nesterenkonia & Alkalibacterium genus)
Test: Repetitive stress test of paints with bacteria mixture 2, semiquantitative evaluation (examples 4 and 5)
Type: cell-based
Parameters: key to Bacterial growth after inoculation: 0: No growth; Minimal growth, 1 to 10 colonies visible over the entire streak; 2: Light growth, maximum 100 colonies; Moderate growth, maximum 300 to 400 colonies; Uniform growth, >400 colonies, single colonies still clearly recognizable; 5: Heavy growth, too many colonies to count, but no growth over the entire streak; 6: Full growth, barely any single colonies still apparent, growth over the entire streak
Text: Paints 1 to 3 were mixed and homogenized with various concentrations of the guanidinium salts to be tested.
The batches obtained of the paint thus prepared were inoculated repeatedly with a mixture of different wild-type bacterial strains that are of practical relevance with regard to contamination. These bacteria had previously been isolated from commercial emulsion paints containing conventional preservatives (bacteria mixture 1, Pseudomonas genus), which are microbially contaminated in practice, and commercial so-called preservative-free alkaline emulsion paints (bacteria mixture 2, alkaliphilic bacteria of the Nesterenkonia & Alkalibacterium genus), which are microbially contaminated in practice.
• Nesterenkonia sp. DSM 108520 • Nesterenkonia sp. DSM 108521 • Alkalibacterium pelagium DSM 108522 • Nesterenkonia massiliensis DSM 110679 • Nesterenkonia sp. DSM 108519
The inoculum was added to the respective sample in each inoculation at 2% (v/w) as a fresh cell suspension in a physiological saline solution (0.9% NaCl). The cell count of the added inoculum in example 1 was 10^5/ml, in examples 2 to 5 10^9/ml, and in example 6 10^6/ml, each in equal portions consisting of the individual bacterial strains. The cell suspension was produced by growing the individual bacteria at 30° C. for 24 h in liquid culture on a shaker. The medium used to grow the bacteria from bacteria mixture 1 was Müller-Hinton liquid medium. Bacteria from bacteria mixture 2 were grown in Müller-Hinton liquid medium that had been adjusted to pH 9.5-9.7 with an alkaline buffer solution beforehand. After growing, the individual liquid cultures were centrifuged, and the cells were resuspended in physiological saline solution. In order to adjust the mixture to the desired cell count, the individual bacteria suspensions, if necessary, were diluted accordingly before being combined with saline solution. The cell count of the inoculum was determined in each case by chamber counting.
In examples 2 to 6, what is called a repetitive stress test with bacteria was conducted by inoculating the samples at particular time intervals repeatedly with a bacteria suspension having a cell count of 10^9/ml (2% v/w) and monitoring the evolution of the bacteria by a semiquantitative evaluation method. After each inoculation, the samples were incubated at 30° C. for 6 days (bacteria mixture 1 and 3) or 7 and 14 days (bacteria mixture 2), and after these periods bacterial infestation was evaluated semiquantitatively in each case. For this purpose, an aliquot was taken from each sample after homogenization using a sterile plastic inoculation loop (10 μl) and streaked evenly on agar plates (bacteria mixture 1 and 3 on tryptic soy agar, bacteria mixture 2 on DSMZ 31 alkaline nutrient agar). The streaked agar plates were then incubated at 30° C. for 48 h (bacteria mixture 1 and 3) or 5 to 7 days (bacteria mixture 2). After incubation, the bacterial colonies grown on the agar plates were visually evaluated and quantified according to the following scheme:
A total of 3 inoculation cycles was performed in each repetitive stress test.
Inoculation 2% (w/v) with Bacteria Mixture 2, 10^9 CFU/ml

## N=C(N)N.N=C(N)N.O=C(O)O [guanidine carbonate]
Table 4, Paint 2, +0.1% guanidine carbonate (656 ppm guanidine), pH 8.9, 2. inoculation, 14 d
  Bacterial growth after inoculation: 4 (Uniform growth, >400 colonies, single colonies still clearly recognizable)
Table 4, Paint 2, +0.1% guanidine carbonate (656 ppm guanidine), pH 8.9, 3. inoculation, 7 d
  Bacterial growth after inoculation: 6/6
Table 4, Paint 2, +0.1% guanidine carbonate (656 ppm guanidine), pH 8.9, 3. inoculation, 14 d
  Bacterial growth after inoculation: 6/6
Table 4, Paint 2, +0.15% guanidine carbonate (984 ppm guanidine), pH 9.0, 1. inoculation, 7 d
  Bacterial growth after inoculation: 0/0
Table 4, Paint 2, +0.15% guanidine carbonate (984 ppm guanidine), pH 9.0, 1. inoculation, 14 d
  Bacterial growth after inoculation: 0/0
Table 4, Paint 2, +0.15% guanidine carbonate (984 ppm guanidine), pH 9.0, 2. inoculation, 7 d
  Bacterial growth after inoculation: 2 (Light growth, maximum 100 colonies)
Table 4, Paint 2, +0.15% guanidine carbonate (984 ppm guanidine), pH 9.0, 2. inoculation, 14 d
  Bacterial growth after inoculation: 1 (Minimal growth, 1 to 10 colonies visible over the entire streak)
Table 4, Paint 2, +0.15% guanidine carbonate (984 ppm guanidine), pH 9.0, 3. inoculation, 7 d
  Bacterial growth after inoculation: 6/6
Table 4, Paint 2, +0.15% guanidine carbonate (984 ppm guanidine), pH 9.0, 3. inoculation, 14 d
  Bacterial growth after inoculation: 6/6
Table 4, Paint 2, +0.2% guanidine carbonate (1312 ppm guanidine), pH 9.1, 1. inoculation, 7 d
  Bacterial growth after inoculation: 0/0
Table 4, Paint 2, +0.2% guanidine carbonate (1312 ppm guanidine), pH 9.1, 1. inoculation, 14 d
  Bacterial growth after inoculation: 0/0
Table 4, Paint 2, +0.2% guanidine carbonate (1312 ppm guanidine), pH 9.1, 2. inoculation, 7 d
  Bacterial growth after inoculation: 0/0
Table 4, Paint 2, +0.2% guanidine carbonate (1312 ppm guanidine), pH 9.1, 2. inoculation, 14 d
  Bacterial growth after inoculation: 0/0
Table 4, Paint 2, +0.2% guanidine carbonate (1312 ppm guanidine), pH 9.1, 3. inoculation, 7 d
  Bacterial growth after inoculation: 6/6
Table 4, Paint 2, +0.2% guanidine carbonate (1312 ppm guanidine), pH 9.1, 3. inoculation, 14 d
  Bacterial growth after inoculation: 6/6
Table 4, Paint 2, +0.25% guanidine carbonate (1640 ppm guanidine), pH 9.1, 1. inoculation, 7 d
  Bacterial growth after inoculation: 0/0
Table 4, Paint 2, +0.25% guanidine carbonate (1640 ppm guanidine), pH 9.1, 1. inoculation, 14 d
  Bacterial growth after inoculation: 0/0
Table 4, Paint 2, +0.25% guanidine carbonate (1640 ppm guanidine), pH 9.1, 2. inoculation, 7 d
  Bacterial growth after inoculation: 0/0
Table 4, Paint 2, +0.25% guanidine carbonate (1640 ppm guanidine), pH 9.1, 2. inoculation, 14 d
  Bacterial growth after inoculation: 0/0
Table 4, Paint 2, +0.25% guanidine carbonate (1640 ppm guanidine), pH 9.1, 3. inoculation, 7 d
  Bacterial growth after inoculation: 0/0
Table 4, Paint 2, +0.25% guanidine carbonate (1640 ppm guanidine), pH 9.1, 3. inoculation, 14 d
  Bacterial growth after inoculation: 0/0
Table 4, Paint 2, +0.3% guanidine carbonate (1968 ppm guanidine), pH 9.2, 1. inoculation, 7 d
  Bacterial growth after inoculation: 0/0
Table 4, Paint 2, +0.3% guanidine carbonate (1968 ppm guanidine), pH 9.2, 1. inoculation, 14 d
  Bacterial growth after inoculation: 0/0
Table 4, Paint 2, +0.3% guanidine carbonate (1968 ppm guanidine), pH 9.2, 2. inoculation, 7 d
  Bacterial growth after inoculation: 0/0
Table 4, Paint 2, +0.3% guanidine carbonate (1968 ppm guanidine), pH 9.2, 2. inoculation, 14 d
  Bacterial growth after inoculation: 0/0
Table 4, Paint 2, +0.3% guanidine carbonate (1968 ppm guanidine), pH 9.2, 3. inoculation, 7 d
  Bacterial growth after inoculation: 0/0
Table 4, Paint 2, +0.3% guanidine carbonate (1968 ppm guanidine), pH 9.2, 3. inoculation, 14 d
  Bacterial growth after inoculation: 0/0
Table 4, Paint 2, +0.4% guanidine carbonate (2624 ppm guanidine), pH 9.3, 1. inoculation, 7 d
  Bacterial growth after inoculation: 0/0
Table 4, Paint 2, +0.4% guanidine carbonate (2624 ppm guanidine), pH 9.3, 1. inoculation, 14 d
  Bacterial growth after inoculation: 0/0
Table 4, Paint 2, +0.4% guanidine carbonate (2624 ppm guanidine), pH 9.3, 2. inoculation, 7 d
  Bacterial growth after inoculation: 0/0
Table 4, Paint 2, +0.4% guanidine carbonate (2624 ppm guanidine), pH 9.3, 2. inoculation, 14 d
  Bacterial growth after inoculation: 0/0
Table 4, Paint 2, +0.4% guanidine carbonate (2624 ppm guanidine), pH 9.3, 3. inoculation, 7 d
  Bacterial growth after inoculation: 0/0
Table 4, Paint 2, +0.4% guanidine carbonate (2624 ppm guanidine), pH 9.3, 3. inoculation, 14 d
  Bacterial growth after inoculation: 0/0
Table 4, Paint 2, +0.5% guanidine carbonate (3280 ppm guanidine), pH 9.4, 1. inoculation, 7 d
  Bacterial growth after inoculation: 0/0
Table 4, Paint 2, +0.5% guanidine carbonate (3280 ppm guanidine), pH 9.4, 1. inoculation, 14 d
  Bacterial growth after inoculation: 0/0
Table 4, Paint 2, +0.5% guanidine carbonate (3280 ppm guanidine), pH 9.4, 2. inoculation, 7 d
  Bacterial growth after inoculation: 0/0
Table 4, Paint 2, +0.5% guanidine carbonate (3280 ppm guanidine), pH 9.4, 2. inoculation, 14 d
  Bacterial growth after inoculation: 0/0
Table 4, Paint 2, +0.5% guanidine carbonate (3280 ppm guanidine), pH 9.4, 3. inoculation, 7 d
  Bacterial growth after inoculation: 0/0
Table 4, Paint 2, +0.5% guanidine carbonate (3280 ppm guanidine), pH 9.4, 3. inoculation, 14 d
  Bacterial growth after inoculation: 0/0
Table 4, Paint 2, +1.0% guanidine carbonate (6560 ppm guanidine), pH 9.8, 1. inoculation, 7 d
  Bacterial growth after inoculation: 0/0
Table 4, Paint 2, +1.0% guanidine carbonate (6560 ppm guanidine), pH 9.8, 1. inoculation, 14 d
  Bacterial growth after inoculation: 0/0
Table 4, Paint 2, +1.0% guanidine carbonate (6560 ppm guanidine), pH 9.8, 2. inoculation, 7 d
  Bacterial growth after inoculation: 0/0
Table 4, Paint 2, +1.0% guanidine carbonate (6560 ppm guanidine), pH 9.8, 2. inoculation, 14 d
  Bacterial growth after inoculation: 0/0
Table 4, Paint 2, +1.0% guanidine carbonate (6560 ppm guanidine), pH 9.8, 3. inoculation, 7 d
  Bacterial growth after inoculation: 0/0
Table 4, Paint 2, +1.0% guanidine carbonate (6560 ppm guanidine), pH 9.8, 3. inoculation, 14 d
  Bacterial growth after inoculation: 0/0
Table 5, Paint 3, +0.15% guanidine carbonate (984 ppm guanidine), pH 11.2, 1. inoculation, 7 d
  Bacterial growth after inoculation: 3 (Moderate growth, maximum 300 to 400 colonies)
Table 5, Paint 3, +0.15% guanidine carbonate (984 ppm guanidine), pH 11.2, 1. inoculation, 14 d
  Bacterial growth after inoculation: 0
Table 5, Paint 3, +0.15% guanidine carbonate (984 ppm guanidine), pH 11.2, 2. inoculation, 7 d
  Bacterial growth after inoculation: 3 (Moderate growth, maximum 300 to 400 colonies)
Table 5, Paint 3, +0.15% guanidine carbonate (984 ppm guanidine), pH 11.2, 2. inoculation, 14 d
  Bacterial growth after inoculation: 0
Table 4, addition of 0.1% by weight to paint 1 having a pH of 9.1 or greater
  Stabilization of the paint against microbial infestation: distinct stabilization
Table 4, addition of 0.1% by weight to paint 2 having a pH of 8.9 or greater
  Stabilization of the paint against microbial infestation: distinct stabilization
Table 5, paint having a pH of pH 11.2, addition of 0.1% by weight
  Stabilization of the paint against microbial infestation: distinct stabilization
